# System: SUM1315-M1B1 cells
# Assay: SUM1315-M1B1 bone metastasis model
# Format: in vivo, athymic nude mice
# Settings: Week 4
# Excerpt: FIG. 9. 15D11 synergizes with chemotherapy to inhibit bone metastasis in the SUM1315-M1B1 model. (A) Western blot analysis of Jagged1 protein expression level in SUM1315-M1B1, SPC2, SCP28-Vector, and SCP28-Jagged1 cells. β-actin was used as loading control. (B) Schematic representation of the experimental procedure. In brief, SUM1315-M1B1 cells were IC injected into 4-6 weeks female athymic nude mice to generate bone metastases. One week later, mice were randomized into four groups and treated with respective therapeutic agents. Bone metastasis progression was monitored by weekly BLI imaging until the experimental endpoint (4 weeks after injection). (C) Representative BLI and X-ray images of mice in Week 4 right before euthanizing the mice. (D) Quantification of bone metastasis burden each week based on BLI imaging from the experiment. […] (E) Representative H&E staining and TRAP staining images of hind limb bones from experiment in A were shown. Scale bar: 100 μm. […] AU: arbitrary unit. n=10, **p<0.01 by Student's t-test. (G) Quantification of the number of TRAP-positive osteoclasts per field. n=5, **p<0.01 by Student's t-test.
# To validate whether the observed synergy of combined treatment can also be observed in other models of bone metastasis beyond the MDA-MB-231 series, the bone metastatic SUM1315-M1B1 cell line was used. […]
smiles,measurement,value
CC(=O)O[C@H]1C(=O)[C@@]2(C)[C@H]([C@H](OC(=O)c3ccccc3)[C@]3(O)C[C@H](OC(=O)[C@H](O)[C@@H](NC(=O)c4ccccc4)c4ccccc4)C(C)=C1C3(C)C)[C@]1(OC(C)=O)CO[C@@H]1C[C@@H]2O [paclitaxel],bone metastasis burden (BLI signal),minor reduction of BLI signal
